Source: patent US10508090B2, “Sulfonamides as GPR40- and GPR120-agonists” (DOMPÉ FARMACEUTICI S.P.A., priority 2016, dated 2019)

Tests used:
human GPR120 = target: T1, human GPR120 (Homo sapiens, UniProt Q5NUL3); experiment: In vitro Ca2+ mobilization, CHO-k1 cells stably expressing human GPR120; format: cell-based; conditions: for AC50: intracellular calcium, CHO-k1 cells expressing human GPR120, read-out: Ca2+ hGPR120 AC50
T1 construct: expressed in transfected cells; host or cells: CHO-k1
T1 sequence (Q5NUL3 1-361): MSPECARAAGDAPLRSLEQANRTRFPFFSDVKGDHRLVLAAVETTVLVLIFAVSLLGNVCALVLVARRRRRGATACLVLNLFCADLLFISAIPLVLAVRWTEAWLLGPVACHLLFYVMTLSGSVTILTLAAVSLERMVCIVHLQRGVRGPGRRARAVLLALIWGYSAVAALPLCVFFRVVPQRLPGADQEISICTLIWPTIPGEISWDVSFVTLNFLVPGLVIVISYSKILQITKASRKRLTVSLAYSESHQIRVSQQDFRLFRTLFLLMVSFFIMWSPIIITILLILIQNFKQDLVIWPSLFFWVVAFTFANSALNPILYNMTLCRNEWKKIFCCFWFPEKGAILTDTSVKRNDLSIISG
Description: (§1) GPR120/40 Activation: In Vitro Ca^2+ Mobilization
(§2) The activation of GPR120/40 by all compounds was determined by measuring changes in intracellular calcium levels using a Ca^2+ sensitive fluorescent dye.
(§3) The experiments were performed using CHO-k1 cells stably expressing the human GPR120 or GPR40. Cells were seeded 10000 cells/well in 384-plates in complete medium and grown overnight at 37° C., 5% CO2. 24 h after seeding, cell culture media was removed and cells were loaded with the fluorescent Ca^2+ indicator (Fluo-8 NW dye in Tyrode's buffer). Dye-loaded cell plates were incubated for 1 h at room temperature under a yellow light sodium lamp.
(§4) Cell were treated with test compounds and controls at 10, 30 and 60 μM. The kinetic response was monitored over a period of 7 minutes (using FLIPRTETRA system). A second injection of 3× concentrated reference agonist at ˜EC50 were then administered to cells and the signal of the emitted fluorescence was measured over a period of additional 3 minutes. The agonist effect is expressed as a percentage of activation, with 100% activation being a result in which the Response Values of the test wells reach a level identical to the one of the Stimulator Controls (alpha linolenic acid reference agonist EC100). 0% activation is a result in which the Response Values of the test wells reach a level identical to the one of the Neutral Controls (assay buffer) in the AGO_KRV (Agonist Kinetic Response Value) response value.

human GPR40 = target: T2, human GPR40 (Homo sapiens, UniProt O14842); experiment: In vitro Ca2+ mobilization, CHO-k1 cells stably expressing human GPR40; format: cell-based; conditions: for AC50: read-out: Ca2+ hGPR40 AC50
T2 construct: expressed in transfected cells; host or cells: CHO-k1
Description: as §1, §2, §3, §4

STC-1 cells = experiment: In vitro GLP-1 secretion in STC-1 cells (ELISA); format: cell-based, murine; conditions: for fold induction at 30 µM: Mus musculus, STC-1, 0.5 h, read-out: GLP-1 RELEASE STC-1, fold of increase over DMSO
Description: (§5) GPR120/40 Activation: In Vitro GLP-1 Secretion
(§6) 2×10^5 STC-1 cells were seeded in a 12-plate and 24 hours later were treated with selected compounds. 1×10^6 NCI-H716 cells were differentiated in matrigel-coated 12-plate and treated 48 h hours later.
(§7) The day of the experiment, wells were washed once with 1 ml of PBS and then cells were stimulated with 0.5 ml of DMEM (w/o serum, w/o phenol-red) containing 30 μM of selected compounds in STC1 and 100 μM in differentiated NCIH716 for 30 minutes. DMSO has been used as negative control, α-linolenic acid (ALA) (endogenous agonist) as positive control. After stimulations, supernatants were collected, centrifuged at 4000 rpm for 4′ at 4° C., and used for the GLP1 detection by ELISA.

NCI-H716 cells = experiment: In vitro GLP-1 secretion in differentiated NCI-H716 cells (ELISA); format: cell-based, human; conditions: for fold induction at 100 µM: Homo sapiens, NCI-H716, 0.5 h, compound at 100 μM for 30 minutes, differentiated NCI-H716 cells, read-out: GLP-1 RELEASE NCI, fold of increase over DMSO
Description: as §5, §6, §7

[1] = intracellular calcium, CHO-k1 cells expressing human GPR40
[2] = compound at 30 μM for 30 minutes, STC-1 cells

T2 sequence (O14842 whole entry): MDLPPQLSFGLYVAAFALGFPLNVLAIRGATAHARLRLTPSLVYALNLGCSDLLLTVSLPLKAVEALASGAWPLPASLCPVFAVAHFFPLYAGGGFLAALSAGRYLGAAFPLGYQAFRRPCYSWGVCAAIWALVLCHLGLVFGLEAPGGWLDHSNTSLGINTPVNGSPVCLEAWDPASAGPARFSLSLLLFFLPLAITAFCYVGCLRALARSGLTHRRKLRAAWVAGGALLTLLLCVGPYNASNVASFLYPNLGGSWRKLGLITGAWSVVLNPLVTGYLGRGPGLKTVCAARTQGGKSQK

SMILES	AC50 (human GPR120) [µM]	AC50 (human GPR40; [1]) [µM]	fold induction at 30 µM (STC-1 cells; [2])	fold induction at 100 µM (NCI-H716 cells)	agonistic activity on GPR120 (AC50 in the calcium mobilization assay), in words (human GPR120)	agonistic activity on GPR40 (AC50 in the calcium mobilization assay), in words (human GPR40)	GLP-1 secretion in STC1 (murine) cells, in words (STC-1 cells)	GLP-1 secretion in NCI-H716 (human) cells, in words (NCI-H716 cells)	Ca2+ hGPR40 AC50 (human GPR40; [1])	GLP-1 RELEASE STC-1, fold of increase over DMSO (STC-1 cells; [2]) [fold]
O=C(O)CCCCCCc1cccc(S(=O)(=O)Nc2nsc(-c3ccccc3)n2)c1 [Example 16, 7-(3-(N-(5-phenyl-1,2,4-thiadiazol-3-yl)sulfamoyl)phenyl)heptanoic acid]	25.9	17.2	1.31 ± 0.32	1.69 ± 0.14						
Cc1n[nH]c(C)c1NS(=O)(=O)c1cccc(CCCCCCC(=O)O)c1 [Example 12, 7-(3-(N-(3,5-dimethyl-1H-pyrazol-4-yl)sulfamoyl)phenyl)heptanoic acid]	13.1	10.7	1.04 ± 0.32	1.41 ± 0.36						
Cc1nnc(NS(=O)(=O)c2cccc(CCCCCCC(=O)O)c2)s1 [Example 18, 7-(3-(N-(5-methyl-1,3,4-thiadiazol-2-yl)sulfamoyl)phenyl)heptanoic acid]	27.8	22.4	1.98 ± 0.37	1.25 ± 0.8						
Cc1nc(NS(=O)(=O)c2cccc(CCCCCCC(=O)O)c2)oc1C [Example 15, 7-(3-(N-(4,5-dimethyloxazol-2-yl)sulfamoyl)phenyl)heptanoic acid]	24.1	27.5	1.19 ± 0.89	1.8 ± 0.91						
Cc1cc(C)c(CNS(=O)(=O)c2cccc(CCCCCCC(=O)O)c2)c(C)c1 [Example 2, 7-(3-(N-(2,4,6-trimethylbenzyl)sulfamoyl)phenyl)heptanoic acid]	7.09	11.2	3.2 ± 0.47	2.1 ± 0.52	low microMolar range	low microMolar range	efficacious	efficacious		
Cc1cc(Br)cc(C)c1NS(=O)(=O)c1cccc(CCCCCCC(=O)O)c1 [Example 7, 7-(3-(N-(4-bromo-2,6-dimethylphenyl)sulfamoyl)phenyl)heptanoic acid]	5.72	19.8	1.8 ± 0.24	1.9 ± 0.15	low microMolar range	low microMolar range	efficacious	efficacious		
CCn1ncc(NS(=O)(=O)c2cccc(CCCCCCC(=O)O)c2)n1 [Example 26, 7-(3-(N-(2-ethyl-2H-1,2,3-triazol-4-yl)sulfamoyl)phenyl)heptanoic acid]	18.9	20.1	1.82 ± 0.41	2.81 ± 0.72						
Cc1cc(C)c(NS(=O)(=O)c2cccc(CCCCCC(=O)O)c2)c(C)c1 [Example 11, 6-{3-[(2,4,6-trimethylphenyl)sulfamoyl]phenyl}hexanoic acid]	6.2		1.71 ± 0.21	1.87 ± 0.27	low microMolar range	low microMolar range	efficacious	efficacious	Inactive	
Cc1cc(N(C)C)cc(C)c1NS(=O)(=O)c1cccc(CCCCCCC(=O)O)c1 [Example 5, 7-(3-(N-(4-(dimethylamino)-2,6-dimethylphenyl)sulfamoyl)phenyl)heptanoic acid]	7.9	10.4	4 ± 0.27	1.92 ± 0.14						
Cc1cc(F)cc(C)c1NS(=O)(=O)c1ccc(CCCCCCC(=O)O)cc1 [Example 25, 7-{4-[(4-fluoro-2,6-dimethylphenyl)sulfamoyl]phenyl}heptanoic acid]	4.3	6.1	4.1 ± 0.78	3.2 ± 0.31						
CC1COC(NS(=O)(=O)c2cccc(CCCCCCC(=O)O)c2)=N1 (stereo not drawn) [Example 28, 7-(3-(N-(4-methyl-4,5-dihydrooxazol-2-yl)sulfamoyl)phenyl)heptanoic acid]	16.1	7.1	3.64 ± 0.43	3.88 ± 1.96						
Cc1nsc(NS(=O)(=O)c2cccc(CCCCCCC(=O)O)c2)n1 [Example 17, 7-(3-(N-(3-methyl-1,2,4-thiadiazol-5-yl)sulfamoyl)phenyl)heptanoic acid]	22.3	13.9	1.9 ± 0.51	2.19 ± 1.22						
Cc1cc(OCCCS(C)(=O)=O)cc(C)c1NS(=O)(=O)c1cccc(CCCCCCC(=O)O)c1 [Example 35, 7-(3-(N-(2,6-dimethyl-4-(3(methylsulfonyl)propoxy)phenyl)sulfamoyl)phenyl)heptanoic acid]	6.1	2.3	4.3 ± 0.61	4.2 ± 0.25						
O=C(O)CCCCCCc1cccc(S(=O)(=O)Nc2csnc2-c2ccccc2)c1 [Example 30, 7-(3-(N-(3-phenylisothiazol-4-yl)sulfamoyl)phenyl)heptanoic acid]	37.1	31.2	2.94 ± 1.12	2.13 ± 1.83						
Cc1cc(F)cc(-c2ccccc2)c1NS(=O)(=O)c1cccc(CCCCCCC(=O)O)c1 [Example 10, 7-(3-(N-(5-fluoro-3-methyl-[1,1′-biphenyl]-2-yl)sulfamoyl)phenyl)heptanoic acid]	16.5	12.8	4.7	2.5	low microMolar range	low microMolar range	efficacious	efficacious		
Cc1cc(F)c(-c2ccccc2)cc1NS(=O)(=O)c1cccc(CCCCCCC(=O)O)c1 [Example 9, 7-(3-(N-(6-fluoro-4-methyl-[1,1′-biphenyl]-3-yl)sulfamoyl)phenyl)heptanoic acid]	11.2	8.9	14.5	6.2	low microMolar range	low microMolar range	efficacious	efficacious		14.5 ± 1.24
COc1cc(C)c(NS(=O)(=O)c2cccc(CCCCCCC(=O)O)c2)c(C)c1 [Example 8, 7-(3-(N-(4-methoxy-2,6-dimethylphenyl)sulfamoyl)phenyl)heptanoic acid]	11.7	4.7	1.7 ± 0.12	2.1 ± 0.08						
Cc1cc(C(C)C)cc(C)c1NS(=O)(=O)c1cccc(CCCCCCC(=O)O)c1 [Example 3, 7-(3-(N-(4-isopropyl-2,6-dimethylphenyl)sulfamoyl)phenyl)heptanoic acid]	1.98	12.9	2.7 ± 0.31	2.5 ± 0.11	low microMolar range	low microMolar range	efficacious	efficacious		
CC/C=C\C/C=C\C/C=C\CCCCCCCC(=O)O [ALA, α-linolenic acid, reference compound]			6.61	1.52						
